Where “and” joins values, the source holds several entries; their conditions need not be identical. Equal values may be shown once. Read-outs that look alike come from different tables or passages of the source. Marks after values point to notes of the source that are not given here. Square brackets hold non-standard residues; d marks the D form. Peptide text beside a SMILES is read from it. ξ: configuration not given here. Ile(3ξ) = CCC(C)[C@H](N)C(=O)O; Thr(3ξ) = CC(O)[C@H](N)C(=O)O; Nle = CCCC[C@H](N)C(=O)O
Key:
[1] = Plasma concentration of apraglutide (LC-MS/MS) in Phase 2 SBS-IF trial (Example 5); format: in vivo; details: human; for level at 168 h: sc, read-out: Mean plasma concentration before the second dose (Ctrough)
Description: Blood samples for analysis of plasma concentration of apraglutide and fasting plasma L-citrulline, a marker of enterocyte mass, were collected at baseline, during first and second treatment injection, four days after first treatment injection and at the end of treatment.
Apraglutide and L-citrulline were quantified using a validated LC-MS-based method. For apraglutide, the analytical method used solid-phase extraction purification of the intact apraglutide molecule and its internal standard. The compounds were identified and quantified using reversed-phase HPLC with MS/MS detection using an AB Sciex API 5000 quadrupole mass spectrometer. For samples below the limit of quantification of 5.00 ng/mL, compounds were identified and quantified using reversed-phase UHPLC with MS/MS detection using an AB Sciex API 5500 quadrupole mass spectrometer. For L-citrulline, the analytical method used protein precipitation extraction of L-Citrulline and its internal standard. The compounds were identified and quantified using Hilic HPLC with MS/MS detection using an AB Sciex API 5000 quadrupole mass spectrometer.

healthy adult volunteers = assay: Safety in multiple dose study in healthy volunteers; format: in vivo, human; details: 1, 5 or 10 mg, 6 weekly SC doses
Description: The pharmacokinetic/pharmacodynamic (PK/PD) relationship between apraglutide, a novel long-acting GLP-2 analog in development for short bowel syndrome, and citrulline was evaluated in a randomized, double-blind, parallel arm, placebo-controlled, multiple dose study. 23 healthy adult volunteers received 6 weekly subcutaneous doses of apraglutide (1, 5, or 10 mg) or placebo and were followed for a further 6 weeks after the last dose. Blood collections were controlled for diet, lifestyle, and diurnal effects.

[2] = Multiple dose study in healthy volunteers (Examples 4 and 7), pharmacokinetics of plasma apraglutide, non-compartmental analysis; details: for CL/F / AUC(0-t) / half-life / Cmax / Tmax / Vd/F: human, plasma
Description: 23 healthy adult volunteers received 6 weekly subcutaneous doses of apraglutide (1, 5, or 10 mg) or placebo and were followed for a further 6 weeks after the last dose. Blood collections were controlled for diet, lifestyle, and diurnal effects. […] PK data underwent non-compartmental analysis and PD data were analyzed by ANCOVA.
As with citrulline, a statistical steady-state analysis per dose level was performed for apraglutide using Helmert's approach.

Q: For CCCC[C@H](NC(=O)[C@H](CCC(=O)O)NC(=O)[C@H](CC(=O)O)NC(=O)[C@H](CO)NC(=O)[C@H](Cc1ccccc1)NC(=O)[C@H](CO)NC(=O)CNC(=O)[C@H](CC(=O)O)NC(=O)CNC(=O)[C@@H](N)Cc1c[nH]cn1)C(=O)N[C@H](Cc1ccccc1)C(=O)N[C@H](C(=O)N[C@H](C(=O)N[C@@H](CC(C)C)C(=O)N[C@@H](CC(=O)O)C(=O)N[C@@H](CC(C)C)C(=O)N[C@@H](CC(C)C)C(=O)N[C@@H](C)C(=O)N[C@@H](C)C(=O)N[C@@H](CCCNC(=N)N)C(=O)N[C@@H](CC(=O)O)C(=O)N[C@@H](Cc1ccccc1)C(=O)N[C@H](C(=O)N[C@@H](CC(N)=O)C(=O)N[C@@H](Cc1c[nH]c2ccccc12)C(=O)N[C@@H](CC(C)C)C(=O)N[C@H](C(=O)N[C@@H](CCC(N)=O)C(=O)N[C@H](C(=O)N[C@@H](CCCCN)C(=O)N[C@H](C(=O)N[C@H](C(=O)N[C@@H](CC(=O)O)C(N)=O)C(C)O)C(C)CC)C(C)O)C(C)CC)C(C)CC)C(C)CC)C(C)O (stereo partly drawn) [apraglutide, L-histidyl-glycyl-L-aspartyl-glycyl-L-seryl-L-phenylalanyl-L-seryl-L-aspartyl-L-glutamyl-L-norleucyl-D-phenylalanyl-L-threonyl-Lisoleucyl-L-leucyl-L-aspartyl-L-leucyl-L-leucyl-L-alanyl-L-alanyl-L-arginyl-L-aspartyl-L-phenylalanyl-L-isoleucyl-L-asparaginyl-Ltryptophanyl-L-leucyl-L-isoleucyl-L-glutaminyl-L-threonyl-L-lysyl-L-isoleucyl-L-threonyl-Laspartic acid amide] (H-HGDGSFSDE[Nle][dF][Thr(3ξ)][Ile(3ξ)]LDLLAARDF[Ile(3ξ)]NWL[Ile(3ξ)]Q[Thr(3ξ)]K[Ile(3ξ)][Thr(3ξ)]D-NH2), which Tmax ([1]; SBS-IF patients, SC, read-out: Time of maximum mean plasma concentration after dosing) is on record?
A: The Tmax was 72 h.

Q: What about the level at 168 h ([1]; 5 mg treatment period) of the same compound?
A: The level at 168 h was 4.5 ng/mL.

Q: And the level at 168 h ([1]; 10 mg treatment period)?
A: Its level at 168 h is 8.9 ng/mL.

Q: And the “Safety and tolerability in words” value (healthy adult volunteers)?
A: Its value is “safe and well-tolerated with no serious AEs”.

Q: What about the “1st Ctrough, arithmetic mean ± SD” value ([2]; 1 mg) of the same compound?
A: The value was 0.000 ng/mL and 0.000 ± 0.000 ng/mL.

Q: What about the “4th Ctrough, arithmetic mean ± SD” value ([2]; 1 mg) of the same compound?
A: The value was 0.873 ng/mL.

Q: And the “AUCtau, arithmetic mean ± SD” value ([2]; 1 mg, (first dose))?
A: Its value is 35.214 ng·days/mL.

Q: And the “AUCtau/dose, Arithmetic mean ± standard deviation” value ([2]; 1 mg, (first dose))?
A: The value was 0.03037 ± 152.1 ng·days/mL/µg.

Q: And the “AUCtau/dose, Arithmetic mean ± standard deviation” value ([2]; 1 mg, dose #6)?
A: Its value is 0.05813 ± 23.1 ng·days/mL/µg.

Q: And the “4th Ctrough, arithmetic mean ± SD” value ([2]; 5 mg)?
A: Its value is 10.163 ng/mL.

Q: What about the “5th Ctrough, arithmetic mean ± SD” value ([2]; 5 mg) of the same compound?
A: Its value is 7.605 ng/mL.

Q: What about the “AUCtau, arithmetic mean ± SD” value ([2]; 5 mg, (first dose)) of the same compound?
A: The value was 300.269 ng·days/mL.

Q: And the “AUCtau/dose, Arithmetic mean ± standard deviation” value ([2]; 5 mg, (first dose))?
A: Its value is 0.05407 ± 47.1 ng·days/mL/µg.

Q: What about the “AUCtau/dose, Arithmetic mean ± standard deviation” value ([2]; 5 mg, dose #6) of the same compound?
A: Its value is 0.06595 ± 47.2 ng·days/mL/µg.

Q: What about the “Lambda_Z, Arithmetic mean ± standard deviation” value ([2]; 5 mg, dose #6 (N = 4)) of the same compound?
A: The value was 0.2384 ± 36.6** 1/d.

Q: What about the “Lambda_Z, arithmetic mean ± SD” value ([2]; 5 mg, dose #6 (N = 4)) of the same compound?
A: Its value is 0.2508 ± 0.09871** 1/d.

Q: And the “2nd Ctrough, arithmetic mean ± SD” value ([2]; 10 mg)?
A: Its value is 18.460 ng/mL.

Q: What about the “6th Ctrough, arithmetic mean ± SD” value ([2]; 10 mg) of the same compound?
A: The value was 13.710 ng/mL.

Q: What about the “AUCtau, arithmetic mean ± SD” value ([2]; 10 mg, (first dose)) of the same compound?
A: Its value is 476.937 ng·days/mL.

Q: And the “AUCtau/dose, Arithmetic mean ± standard deviation” value ([2]; 10 mg, (first dose))?
A: The value was 0.04291 ± 47.6 ng·days/mL/µg.

Q: What about the “Steady-state contrast: mean Ctrough over week 3 to 6 against week 2” value ([2]; 10 mg, Helmert's approach) of the same compound?
A: Its value is −3.616.

Q: What about the “Lambda_Z, arithmetic mean ± SD” value ([2]; 10 mg, dose #6) of the same compound?
A: Its value is 0.2463 ± 0.09975 day⁻¹.

Q: And the “AUCtau/dose, Arithmetic mean ± standard deviation” value ([2]; 10 mg, dose #6 (N = 5))?
A: The value was 0.05288 ± 52.4 ng·days/mL/µg.

Q: What about the “Lambda_Z, Arithmetic mean ± standard deviation” value ([2]; 10 mg, dose #6 (N = 5)) of the same compound?
A: The value was 0.231 ± 41.3* 1/d.

Q: What about the “Kinetics over the 1 to 10 mg dose range, in words” value ([2]; dose-normalized Cmax and AUCtau) of the same compound?
A: The value was “follows linear kinetics”.

Q: And the CL/F ([2]; sc, 1 mg)?
A: The CL/F was 11.9 mL/min.

Q: And the AUC(0-t) ([2]; sc, 1 mg, AUClast, Arithmetic mean ± standard deviation, dose #6)?
A: The AUC(0-t) was 1310 ng·h/mL.

Q: What about the AUC(0-t) ([2]; sc, 1 mg, AUClast, arithmetic mean ± SD, dose #6) of the same compound?
A: The AUC(0-t) was 1360 ng·h/mL.

Q: What about the AUC(0-t) ([2]; sc, 1 mg, AUCtau, arithmetic mean ± SD, (first dose)) of the same compound?
A: The AUC(0-t) was 845 ng·h/mL.

Q: And the CL/F ([2]; sc, 5 mg)?
A: The CL/F was 10.5 mL/min.

Q: And the AUC(0-t) ([2]; sc, 5 mg, AUClast, Arithmetic mean ± standard deviation, dose #6)?
A: Its AUC(0-t) is 8500 ng·h/mL.

Q: And the AUC(0-t) ([2]; sc, 5 mg, AUClast, arithmetic mean ± SD, dose #6)?
A: Its AUC(0-t) is 9170 ng·h/mL.

Q: And the AUC(0-t) ([2]; sc, 5 mg, AUCtau, arithmetic mean ± SD, (first dose))?
A: The AUC(0-t) was 7210 ng·h/mL.

Q: What about the CL/F ([2]; sc, 10 mg) of the same compound?
A: The CL/F was 13.1 mL/min.

Q: And the AUC(0-t) ([2]; sc, 10 mg, AUClast, Arithmetic mean ± standard deviation, dose #6 (N = 5))?
A: Its AUC(0-t) is 13800 ng·h/mL.

Q: What about the AUC(0-t) ([2]; sc, 10 mg, AUCtau, arithmetic mean ± SD, (first dose)) of the same compound?
A: The AUC(0-t) was 11400 ng·h/mL.

Q: What about the half-life ([2]; sc, 10 mg, Half-life indicated by PK parameters, healthy volunteers, 6 weekly SC doses of 1, 5 or 10 mg) of the same compound?
A: The half-life was 72 h.

Q: What about the Cmax ([2]; subcutaneous, 1 mg, arithmetic mean ± SD, (first dose)) of the same compound?
A: The Cmax was 13.9 ± 11.2 ng/mL.

Q: What about the Cmax ([2]; subcutaneous, 1 mg, arithmetic mean ± SD, dose #6) of the same compound?
A: The Cmax was 24.2 ± 9.22 ng/mL.

Q: What about the Cmax ([2]; subcutaneous, 1 mg, geometric mean (geometric coefficient of variation %), (first dose)) of the same compound?
A: The Cmax was 12.3 ± 146 ng/mL.

Q: And the Tmax ([2]; subcutaneous, 1 mg, tmax at dose 1 and 6, 1 mg)?
A: Its Tmax is roughly 24 h.

Q: What about the Tmax ([2]; subcutaneous, 1 mg, tmax, median, (first dose)) of the same compound?
A: Its Tmax is 24 h.

Q: What about the Tmax ([2]; subcutaneous, 1 mg, tmax, median, dose #6) of the same compound?
A: Its Tmax is 21.6 h.

Q: What about the Vd/F ([2]; subcutaneous, 5 mg) of the same compound?
A: Its Vd/F is 50.2 ± 61 L.

Q: What about the Cmax ([2]; subcutaneous, 5 mg, arithmetic mean ± SD, (first dose)) of the same compound?
A: The Cmax was 94.1 ± 50.5 ng/mL.

Q: And the Cmax ([2]; subcutaneous, 5 mg, arithmetic mean ± SD, dose #6)?
A: Its Cmax is 125 ± 72.1 ng/mL.

Q: What about the Cmax ([2]; subcutaneous, 5 mg, geometric mean (geometric coefficient of variation %), (first dose)) of the same compound?
A: Its Cmax is 84.1 ± 55.1 ng/mL.

Q: What about the Cmax ([2]; subcutaneous, 5 mg, geometric mean (geometric coefficient of variation %), dose #6) of the same compound?
A: The Cmax was 108 ± 64.6 ng/mL.

Q: What about the half-life ([2]; subcutaneous, 5 mg, Half life, 5 mg, following dose #6) of the same compound?
A: The half-life was 72.7 ± 23 h.

Q: What about the half-life ([2]; subcutaneous, 5 mg, t1/2, lower section headed Arithmetic mean ± standard deviation, dose #6 (N = 4)) of the same compound?
A: The half-life was 69.8 h.

Q: And the Tmax ([2]; subcutaneous, 5 mg, tmax at dose 1 and 6, 5 mg)?
A: Its Tmax is roughly 24 h.

Q: And the Tmax ([2]; subcutaneous, 5 mg, tmax, median, (first dose))?
A: The Tmax was 24 h.

Q: And the Tmax ([2]; subcutaneous, 5 mg, tmax, median, dose #6)?
A: Its Tmax is 24 h.

Q: What about the Vd/F ([2]; subcutaneous, 10 mg) of the same compound?
A: The Vd/F was 81.9 ± 98.6 L.
